Assay results as given in ChEMBL document CHEMBL3745672, “Novel compounds reducing IRS-1 serine phosphorylation for treatment of diabetes” (Bioorg Med Chem Lett, 2016).

How the values were obtained:
[1] = molecular target: Serine/threonine-protein kinase B-raf (Homo sapiens) (UniProt P15056); assay: Inhibition of B-RAF (unknown origin) at 1 uM
[2] = molecular target: Platelet-derived growth factor receptor beta (Homo sapiens) (UniProt P09619); assay: Inhibition of PDGFRbeta (unknown origin) at 1 uM
[3] = molecular target: Mast/stem cell growth factor receptor Kit (Homo sapiens) (UniProt P10721); assay: Inhibition of cKIT (unknown origin) at 1 uM
[4] = molecular target: Rho-associated protein kinase 2 (Homo sapiens) (UniProt O75116); assay: Inhibition of ROCK2 (unknown origin) at 1 uM
[5] = molecular target: Angiopoietin-1 receptor (Homo sapiens) (UniProt Q02763); assay: Inhibition of TIE2 (unknown origin) at 1 uM
[6] = molecular target: Mitogen-activated protein kinase 3 (Homo sapiens) (UniProt P27361); assay: Inhibition of ERK1 (unknown origin) at 1 uM
[7] = molecular target: T1, Tyrosine-protein kinase JAK3 (Homo sapiens) (UniProt P52333); assay: Inhibition of JAK3 (unknown origin) at 1 uM
T1 sequence (whole entry): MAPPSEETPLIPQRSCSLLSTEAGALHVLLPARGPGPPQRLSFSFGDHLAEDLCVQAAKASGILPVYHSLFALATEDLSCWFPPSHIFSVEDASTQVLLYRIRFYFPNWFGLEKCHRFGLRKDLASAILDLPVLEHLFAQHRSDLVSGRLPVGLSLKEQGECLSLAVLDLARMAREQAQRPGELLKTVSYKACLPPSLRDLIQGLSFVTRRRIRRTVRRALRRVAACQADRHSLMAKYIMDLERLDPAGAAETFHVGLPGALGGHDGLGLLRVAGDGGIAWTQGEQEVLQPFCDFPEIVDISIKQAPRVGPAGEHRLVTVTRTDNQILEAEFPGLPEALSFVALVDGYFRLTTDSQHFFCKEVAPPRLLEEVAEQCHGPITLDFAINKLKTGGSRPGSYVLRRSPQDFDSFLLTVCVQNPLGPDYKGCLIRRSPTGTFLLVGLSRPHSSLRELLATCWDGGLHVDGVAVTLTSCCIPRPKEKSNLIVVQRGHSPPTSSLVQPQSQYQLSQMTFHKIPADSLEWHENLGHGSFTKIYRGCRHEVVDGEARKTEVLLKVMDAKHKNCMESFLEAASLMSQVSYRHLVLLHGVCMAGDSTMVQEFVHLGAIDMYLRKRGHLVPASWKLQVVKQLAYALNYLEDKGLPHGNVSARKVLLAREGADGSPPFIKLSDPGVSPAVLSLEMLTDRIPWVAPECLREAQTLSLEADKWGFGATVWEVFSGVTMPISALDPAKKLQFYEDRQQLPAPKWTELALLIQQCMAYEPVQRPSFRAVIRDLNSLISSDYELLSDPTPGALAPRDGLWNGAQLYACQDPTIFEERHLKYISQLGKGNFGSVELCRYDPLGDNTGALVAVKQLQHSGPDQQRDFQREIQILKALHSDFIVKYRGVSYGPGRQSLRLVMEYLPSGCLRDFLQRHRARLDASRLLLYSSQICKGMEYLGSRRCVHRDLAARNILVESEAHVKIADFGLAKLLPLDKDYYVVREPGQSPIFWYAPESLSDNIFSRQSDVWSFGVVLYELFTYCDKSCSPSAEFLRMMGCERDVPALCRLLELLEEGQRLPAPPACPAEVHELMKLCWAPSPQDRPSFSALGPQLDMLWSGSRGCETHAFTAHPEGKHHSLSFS

[8] = molecular target: Tyrosine-protein kinase ABL1 (Homo sapiens) (UniProt P00519); assay: Inhibition of ABL (unknown origin) at 1 uM
[9] = molecular target: Fibroblast growth factor receptor 3 (Homo sapiens) (UniProt P22607); assay: Inhibition of FGFR3 (unknown origin) at 1 uM
[10] = molecular target: T2, Interleukin-1 receptor-associated kinase 4 (Homo sapiens) (UniProt Q9NWZ3); assay: Inhibition of IRAK4 (unknown origin) at 1 uM
T2 sequence (whole entry): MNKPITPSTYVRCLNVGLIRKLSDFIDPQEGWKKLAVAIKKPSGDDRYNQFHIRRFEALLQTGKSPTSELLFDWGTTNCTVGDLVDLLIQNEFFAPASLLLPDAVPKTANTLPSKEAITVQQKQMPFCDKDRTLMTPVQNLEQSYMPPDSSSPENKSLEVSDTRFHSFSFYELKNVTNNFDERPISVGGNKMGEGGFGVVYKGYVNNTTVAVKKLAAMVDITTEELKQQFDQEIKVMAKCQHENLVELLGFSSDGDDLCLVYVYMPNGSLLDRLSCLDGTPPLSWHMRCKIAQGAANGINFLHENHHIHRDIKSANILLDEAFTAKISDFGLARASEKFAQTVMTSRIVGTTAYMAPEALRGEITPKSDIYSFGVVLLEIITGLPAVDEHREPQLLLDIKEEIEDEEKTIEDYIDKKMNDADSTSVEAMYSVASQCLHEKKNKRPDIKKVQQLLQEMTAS

[11] = molecular target: Receptor tyrosine-protein kinase erbB-2 (Homo sapiens) (UniProt P04626); assay: Inhibition of ERBB2 (unknown origin) at 1 uM
[12] = molecular target: T3, Inhibitor of nuclear factor kappa-B kinase subunit beta (Homo sapiens) (UniProt O14920); assay: Inhibition of IKKbeta (unknown origin) at 1 uM
T3 sequence (whole entry): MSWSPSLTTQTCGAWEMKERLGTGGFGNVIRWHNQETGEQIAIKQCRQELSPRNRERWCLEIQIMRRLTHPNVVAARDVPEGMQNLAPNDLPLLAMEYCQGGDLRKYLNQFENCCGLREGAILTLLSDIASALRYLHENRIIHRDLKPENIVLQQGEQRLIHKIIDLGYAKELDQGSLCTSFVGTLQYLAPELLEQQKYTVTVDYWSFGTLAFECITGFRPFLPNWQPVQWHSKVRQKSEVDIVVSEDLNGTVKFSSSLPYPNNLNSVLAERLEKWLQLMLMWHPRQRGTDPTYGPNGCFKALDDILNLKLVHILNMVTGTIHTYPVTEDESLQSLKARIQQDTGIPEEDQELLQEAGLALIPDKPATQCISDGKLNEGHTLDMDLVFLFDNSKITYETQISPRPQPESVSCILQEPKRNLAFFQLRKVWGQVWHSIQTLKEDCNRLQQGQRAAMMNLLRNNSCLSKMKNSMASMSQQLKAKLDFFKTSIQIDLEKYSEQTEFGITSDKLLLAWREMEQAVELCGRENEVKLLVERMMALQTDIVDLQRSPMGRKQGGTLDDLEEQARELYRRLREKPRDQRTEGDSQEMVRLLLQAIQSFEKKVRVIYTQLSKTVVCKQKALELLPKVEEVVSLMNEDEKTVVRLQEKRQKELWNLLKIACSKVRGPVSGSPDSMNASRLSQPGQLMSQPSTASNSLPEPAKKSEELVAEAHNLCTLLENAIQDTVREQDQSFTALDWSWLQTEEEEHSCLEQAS

[13] = molecular target: Vascular endothelial growth factor receptor 2 (Homo sapiens) (UniProt P35968); assay: Inhibition of VEGFR2 (unknown origin) at 1 uM

Receptor tyrosine-protein kinase erbB-2 (Homo sapiens), sequence (P04626 whole entry): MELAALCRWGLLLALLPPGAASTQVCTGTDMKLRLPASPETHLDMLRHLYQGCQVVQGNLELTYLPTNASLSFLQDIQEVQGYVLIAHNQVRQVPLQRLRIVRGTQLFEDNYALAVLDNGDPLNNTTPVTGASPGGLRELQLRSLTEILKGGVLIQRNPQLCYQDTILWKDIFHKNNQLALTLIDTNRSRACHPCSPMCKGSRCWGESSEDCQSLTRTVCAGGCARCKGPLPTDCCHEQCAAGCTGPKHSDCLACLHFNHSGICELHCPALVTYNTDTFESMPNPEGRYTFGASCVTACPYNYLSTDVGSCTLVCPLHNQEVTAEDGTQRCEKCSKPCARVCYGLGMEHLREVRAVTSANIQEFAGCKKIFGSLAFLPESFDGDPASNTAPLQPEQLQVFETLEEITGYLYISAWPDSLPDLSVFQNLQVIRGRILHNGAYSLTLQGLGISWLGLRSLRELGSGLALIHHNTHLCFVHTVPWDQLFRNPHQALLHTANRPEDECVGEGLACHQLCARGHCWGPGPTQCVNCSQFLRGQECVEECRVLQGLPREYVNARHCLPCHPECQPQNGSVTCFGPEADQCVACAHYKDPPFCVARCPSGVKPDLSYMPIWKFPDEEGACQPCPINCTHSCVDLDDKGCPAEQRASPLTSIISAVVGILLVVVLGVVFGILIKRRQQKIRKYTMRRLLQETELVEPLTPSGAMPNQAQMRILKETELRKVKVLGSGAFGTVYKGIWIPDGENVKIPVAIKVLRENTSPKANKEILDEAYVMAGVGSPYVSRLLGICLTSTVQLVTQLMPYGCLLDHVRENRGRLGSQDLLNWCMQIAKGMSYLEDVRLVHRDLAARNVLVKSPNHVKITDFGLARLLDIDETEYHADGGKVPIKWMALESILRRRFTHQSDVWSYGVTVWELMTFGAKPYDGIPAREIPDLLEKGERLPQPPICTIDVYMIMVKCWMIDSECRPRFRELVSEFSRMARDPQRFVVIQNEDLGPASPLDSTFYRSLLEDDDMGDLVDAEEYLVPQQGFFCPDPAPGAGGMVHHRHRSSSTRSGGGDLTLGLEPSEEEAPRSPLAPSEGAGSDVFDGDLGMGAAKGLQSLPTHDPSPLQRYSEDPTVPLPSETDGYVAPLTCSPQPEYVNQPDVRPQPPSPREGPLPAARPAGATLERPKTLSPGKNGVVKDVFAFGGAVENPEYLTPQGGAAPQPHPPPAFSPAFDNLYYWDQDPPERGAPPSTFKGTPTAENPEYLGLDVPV
Mitogen-activated protein kinase 3 (Homo sapiens), sequence (P27361 whole entry): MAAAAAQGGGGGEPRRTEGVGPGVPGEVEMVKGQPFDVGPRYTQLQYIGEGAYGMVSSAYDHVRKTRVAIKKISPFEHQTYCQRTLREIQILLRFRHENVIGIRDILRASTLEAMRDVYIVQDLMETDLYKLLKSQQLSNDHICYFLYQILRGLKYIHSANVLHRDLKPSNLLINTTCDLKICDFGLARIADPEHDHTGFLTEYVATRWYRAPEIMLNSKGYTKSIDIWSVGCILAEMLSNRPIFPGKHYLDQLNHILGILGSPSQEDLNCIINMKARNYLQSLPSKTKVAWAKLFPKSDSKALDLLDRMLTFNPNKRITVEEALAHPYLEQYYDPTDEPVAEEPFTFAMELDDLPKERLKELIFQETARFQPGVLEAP
Fibroblast growth factor receptor 3 (Homo sapiens), sequence (P22607 23-806 limits assumed): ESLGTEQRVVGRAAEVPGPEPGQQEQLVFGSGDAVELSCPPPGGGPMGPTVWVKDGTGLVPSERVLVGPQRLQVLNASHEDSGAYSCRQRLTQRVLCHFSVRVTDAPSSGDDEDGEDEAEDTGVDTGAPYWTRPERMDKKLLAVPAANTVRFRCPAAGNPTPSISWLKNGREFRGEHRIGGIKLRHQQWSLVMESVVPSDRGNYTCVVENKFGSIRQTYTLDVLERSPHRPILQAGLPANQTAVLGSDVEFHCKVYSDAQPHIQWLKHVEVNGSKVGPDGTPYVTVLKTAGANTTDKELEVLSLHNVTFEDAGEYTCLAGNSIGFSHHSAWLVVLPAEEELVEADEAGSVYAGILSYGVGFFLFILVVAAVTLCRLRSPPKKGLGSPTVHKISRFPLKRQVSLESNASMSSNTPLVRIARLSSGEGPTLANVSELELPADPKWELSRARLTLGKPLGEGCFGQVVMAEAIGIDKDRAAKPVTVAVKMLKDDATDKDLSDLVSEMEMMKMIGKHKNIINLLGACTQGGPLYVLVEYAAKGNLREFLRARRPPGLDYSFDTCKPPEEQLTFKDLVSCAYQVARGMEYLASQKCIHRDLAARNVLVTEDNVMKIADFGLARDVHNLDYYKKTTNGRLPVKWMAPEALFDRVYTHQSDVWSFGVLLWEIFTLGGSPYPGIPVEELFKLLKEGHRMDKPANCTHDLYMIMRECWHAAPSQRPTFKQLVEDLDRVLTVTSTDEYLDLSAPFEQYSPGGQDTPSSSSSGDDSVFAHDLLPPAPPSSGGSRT
Mast/stem cell growth factor receptor Kit (Homo sapiens), sequence (P10721 whole entry): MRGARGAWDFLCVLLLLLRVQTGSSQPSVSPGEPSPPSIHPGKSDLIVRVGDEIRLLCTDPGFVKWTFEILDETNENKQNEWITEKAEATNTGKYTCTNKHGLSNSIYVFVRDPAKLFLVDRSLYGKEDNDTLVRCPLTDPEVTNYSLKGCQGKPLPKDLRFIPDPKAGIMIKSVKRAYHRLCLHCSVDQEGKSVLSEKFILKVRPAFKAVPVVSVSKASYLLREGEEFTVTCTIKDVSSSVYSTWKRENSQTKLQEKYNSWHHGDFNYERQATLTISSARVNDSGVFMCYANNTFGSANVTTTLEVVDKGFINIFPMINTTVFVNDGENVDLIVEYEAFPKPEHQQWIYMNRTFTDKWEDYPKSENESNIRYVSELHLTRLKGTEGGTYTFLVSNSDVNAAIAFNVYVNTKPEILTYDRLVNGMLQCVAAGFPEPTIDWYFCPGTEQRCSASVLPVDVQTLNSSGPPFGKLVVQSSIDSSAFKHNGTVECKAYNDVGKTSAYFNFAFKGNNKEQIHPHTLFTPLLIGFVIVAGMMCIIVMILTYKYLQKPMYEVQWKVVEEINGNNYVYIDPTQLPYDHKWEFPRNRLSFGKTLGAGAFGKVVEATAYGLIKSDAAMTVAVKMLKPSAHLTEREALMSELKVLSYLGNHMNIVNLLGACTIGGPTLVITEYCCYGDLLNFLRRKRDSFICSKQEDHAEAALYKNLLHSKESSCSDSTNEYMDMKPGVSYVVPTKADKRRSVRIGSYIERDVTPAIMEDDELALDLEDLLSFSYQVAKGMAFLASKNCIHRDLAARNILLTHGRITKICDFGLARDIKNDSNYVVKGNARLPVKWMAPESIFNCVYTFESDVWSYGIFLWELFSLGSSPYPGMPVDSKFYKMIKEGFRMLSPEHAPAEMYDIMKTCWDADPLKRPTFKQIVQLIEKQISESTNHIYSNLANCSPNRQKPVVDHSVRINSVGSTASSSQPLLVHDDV
Angiopoietin-1 receptor (Homo sapiens), sequence (Q02763 whole entry): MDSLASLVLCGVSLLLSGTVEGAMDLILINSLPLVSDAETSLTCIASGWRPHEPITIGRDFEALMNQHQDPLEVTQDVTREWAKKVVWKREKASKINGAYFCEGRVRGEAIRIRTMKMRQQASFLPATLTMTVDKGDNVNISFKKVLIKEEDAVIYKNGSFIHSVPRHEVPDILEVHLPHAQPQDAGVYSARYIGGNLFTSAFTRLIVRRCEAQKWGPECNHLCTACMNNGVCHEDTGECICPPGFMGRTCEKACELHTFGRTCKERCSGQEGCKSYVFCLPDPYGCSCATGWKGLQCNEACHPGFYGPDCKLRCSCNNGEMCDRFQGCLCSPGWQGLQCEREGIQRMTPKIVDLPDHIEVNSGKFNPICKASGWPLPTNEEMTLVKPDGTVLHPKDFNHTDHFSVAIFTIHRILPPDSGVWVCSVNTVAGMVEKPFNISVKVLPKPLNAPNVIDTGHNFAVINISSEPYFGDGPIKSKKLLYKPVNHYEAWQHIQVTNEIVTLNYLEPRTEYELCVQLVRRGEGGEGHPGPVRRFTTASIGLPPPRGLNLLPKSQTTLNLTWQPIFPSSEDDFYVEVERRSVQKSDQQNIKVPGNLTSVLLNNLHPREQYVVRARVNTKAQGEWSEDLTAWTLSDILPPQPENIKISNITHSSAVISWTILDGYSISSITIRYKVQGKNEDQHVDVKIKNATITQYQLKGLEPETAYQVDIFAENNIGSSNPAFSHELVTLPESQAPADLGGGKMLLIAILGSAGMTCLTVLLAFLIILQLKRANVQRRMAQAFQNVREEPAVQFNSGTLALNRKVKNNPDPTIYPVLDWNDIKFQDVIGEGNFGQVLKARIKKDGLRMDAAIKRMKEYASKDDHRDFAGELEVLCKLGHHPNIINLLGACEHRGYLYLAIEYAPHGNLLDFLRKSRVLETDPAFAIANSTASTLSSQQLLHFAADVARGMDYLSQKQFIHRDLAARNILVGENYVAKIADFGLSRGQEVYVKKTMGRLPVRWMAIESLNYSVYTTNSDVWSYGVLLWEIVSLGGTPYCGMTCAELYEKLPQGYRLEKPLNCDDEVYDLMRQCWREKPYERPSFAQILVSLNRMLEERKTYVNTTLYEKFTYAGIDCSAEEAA

inhibition [1]: 18%
inhibition [2]: 13%
inhibition [3]: 17%
inhibition [4]: 13%
inhibition [5]: 10%
inhibition [6]: 16%
inhibition [7]: 10%
inhibition [8]: 17%
inhibition [9]: 5%
inhibition [10]: 8%
inhibition [11]: 4%
inhibition [12]: 13%
inhibition [13]: 9%
Structure (SMILES): Cn1c(=O)c(Oc2ccc(F)cc2F)cc2cnc(NC3CCN(S(N)(=O)=O)CC3)nc21
